According to patent US20030083241A1, “Use of somatostatin receptor agonists in the treatment of human disorders of sleep hypoxia and oxygen deprivation” (priority 2001, published 2003):

How the values were obtained:
GERD symptoms = assay: Clinical observation of GERD symptoms in a terminal cancer patient given octreotide; assay type: in vivo, human
Protocol: Development of the present invention was stimulated by an event in Applicant's clinical practice of oncology. Octretotide was added to the treatment program of a patient with terminal cancer because the patient's cancer concentrated radiolabelled octreotide on a nuclear medicine scan. Treatment was initiated with subcutaneous octreotide at a dose of 150 microgram twice daily, then three times daily, and then finally the patient was shifted to a longer-acting depot formulation of octreotide (Sandostatin LAR) that was given intramuscularly on a monthly basis.

GHRH hormone secretion = conditions: in vivo; cited from earlier work
obstructive sleep apnea = conditions: octreotide given as therapy for the endocrine disorder; cited from earlier work
[1] = system: TNF-alpha, Interleukin-1 beta and Interleukin-6; conditions: cited from earlier work

C[C@@H](O)[C@@H]1NC(=O)[C@H](CCCCN)NC(=O)[C@@H](Cc2c[nH]c3ccccc23)NC(=O)[C@H](Cc2ccccc2)NC(=O)[C@@H](NC(=O)[C@H](N)Cc2ccccc2)CSSC[C@@H](C(=O)N[C@H](CO)[C@@H](C)O)NC1=O [octreotide, octreotide acetate]
GERD symptoms after initiation of octreotide administration (GERD symptoms; one patient with terminal cancer, subcutaneous 150 microgram twice, then three times daily, then monthly IM Sandostatin LAR, symptoms present for many years): rapid and complete disappearance of GERD symptoms
duration of control of GERD symptomatology (GERD symptoms; same patient, until death from a complication of the cancer unrelated to therapy): maintained for several months
GHRH hormone secretion (GHRH hormone secretion): inhibited
obstructive sleep apnea in patients with acromegaly (obstructive sleep apnea): ameliorated in many patients
secretion of TNF-alpha, Interleukin-1 beta and Interleukin-6 [1]: inhibit
